We go through four compounds from patent publication US20220409560A1, “Pharmaceutical Compositions, Formulations And Methods For The Treatment Of Retinoblastoma” (Oxular Limited, priority 2019, published 2022).

In data set [1] the test system is Human retinoblastoma tumour cells, Y79. The experiment in a line: Retinoblastoma in vivo model, retinoblastoma cell area on the retina by histology. The conditions noted are these: for retinoblastoma cell areas from both H&E staining and antibody staining: culled at 5 weeks; for reduction in retinoblastoma cells in the eyes as compared to sham: p<0.01. The arrangement: species or system rabbits. The procedure:
Human retinoblastoma tumour cells, Y79 (ATCC@ HTB-18), were grown in media consisting of RPMI 1640 containing 20% FBS, L-glutamine 200 mM (100×), penicillin/streptomycin 5,000 U/ml and amphotericin B 250 μg/ml, to a target suspension density of 3×10^5 cells/flask in 20 ml of media in a T75 flask. Thirty-two eyes in 16 immunosuppressed rabbits were inoculated with 200,000 cells in 30 μl of serum free media to the posterior retinal surface by intravitreal injection. The animals were studied in 4 groups of 8 eight eyes. Two groups were administered topotecan prepared in 30 μl of sterile saline injected intravitreally through a 29 gauge needle in the posterior region of the vitreous cavity near the tumour cells. One topotecan group was administered a 10 μg dose and a second group administered a 50 μg dose. The topotecan groups were administered the active agent formulation at 2, 3 and 4 weeks after tumour cell inoculation. […] A fourth group was treated with a sham injection of 30 μl sterile saline through a 29 gauge needle in the posterior region of the vitreous near the tumour cells at 2, 3 and 4 weeks after tumour cell inoculation. All animals were culled at 5 weeks to allow processing of the retina and retinoblastoma tumour cells on the retina for histological examination. Macro photography of the flat mounted retinae recorded tumour cell survival on the retinae and then representative sections were removed for fixation and subsequent processing for histology. All samples were cut at 5 μm and stained by H&E and replicate slides stained with human mitochondrial marker antibody to positively identify the human retinoblastoma cells. Slides were then scanned using a slide scanner (Histech or Hamamatsu S360) and retinoblastoma cell area on the retina quantified using CaseViewer software.
Representative histology images are shown in FIG. 4 with arrows indicating the retinoblastoma cells on the retina.

The subject of data set [2] is WERI cell line (WERI-Rb1). The data set is described as follows: Retinoblastoma cell proliferation inhibition assay (Cell Titer Glo, 72 hour incubation). It is filed as cell-based, human. (Cellular ATP, detected with luciferase, serves as a proxy for viable cell number.)
The subject of data set [3] is BJ cell line. The data set is described as follows: cells. The note with it: Homo sapiens, 72 h.
In data set [4] the test system is Y79 cell line. The data set is described as follows: Retinoblastoma cell proliferation inhibition assay (Cell Titer Glo, 72 hour incubation). Type of data set: cell-based, human.
Data set [5] can be described thus: Ocular pharmacokinetic study, suprachoroidal administration of micelle formulation, tissue concentration by LCMS. Type of data set: in vivo, New Zealand White rabbits. The conditions noted are these: 25 μg dose, micellular formulation, rabbit. An excerpt:
Both solutions were filter sterilized by passage through a sterile 0.2 micron nylon syringe filter into a sterile vial to produce a sterile formulation. The mixture was vortex mixed to produce a micelle suspension. […] A flexible catheter with 250 micron OD and 140 micron ID was surgically introduced into the suprachoroidal space in the anterior region of the eye at the pars plana. The catheter was advanced posteriorly toward the posterior region of the suprachoroidal space. The catheter was configured to conduct light and provided illumination of the catheter tip and shaft to determine the catheter position and configuration by trans-scleral visualization. The illuminated tip of the catheter was used to position the catheter in the posterior region of the suprachoroidal space. The illuminated shaft of the catheter was used to manipulate and position the catheter to direct the injection toward the posterior region of the space. […] The eyes were examined by slit lamp in the anterior segment and by indirect ophthalmoscopy in the posterior segment prior to euthanasia for each time point at 1, 3, 7, 14 days post administration.

For data set [6], the system named is BJ cell line. The note with it: BJ cell line (normal fibroblast), 72 hour incubation.

pEC50: −log10 of the molar value. Where two headings read alike, the source gives them in different places.

As usually defined, the pEC50 is the negative decadic logarithm of the EC50, by convention in mol/L. High values mean a low EC50, low ones a high EC50. Take `CC[C@@]1(O)C(=O)OCc2c1cc1n(c2=O)Cc2cc3c(CN(C)C)c(O)ccc3nc2-1` [Topotecan]: the “retinoblastoma cell areas from both H&E staining and antibody staining” value is listed as “lower compared to sham” in data set [1] (10 μg intravitreal at 2, 3 and 4 weeks after inoculation); “lower compared to sham” in data set [1] (50 μg intravitreal at 2, 3 and 4 weeks after inoculation). In addition, the “reduction in retinoblastoma cells in the eyes as compared to sham” value in data set [1] (high dose (50 μg) intravitreal) was “statistically significant reduction”. Besides, the pEC50 is 7.41 in data set [2] (Homo sapiens), below 5.59 in data set [3] and 7.16 in data set [4] (Homo sapiens).

`O=C(CCCCCCC(=O)Nc1ccccc1)NO` [Vorinostat] had a pEC50 in data set [3] below 4.26.

Consider `CC(C)c1ccccc1Cc1cc(C(=O)Nc2ccc(S(=O)(=O)c3ccccc3C(C)(C)C)cc2)c(O)c(O)c1O` [TW-37], for which, in data set [5], the “choroid concentration at 14 days” value is listed as “near baseline”, the “level of TW-37 in the vitreous” value is given as “relatively low levels”, the “retina concentration at 14 days” value is on record as “near baseline” and the “time of peak concentration in the choroid” value was found to be 3 days. Besides, in data set [5], the “time of peak concentration in the retina” value is given as 7 days and the “tissue exposure of TW-37 to the target retina after a single administration” value came to 14 days. Moreover, the “retinoblastoma cell areas from both H&E staining and antibody staining” value in data set [1] (10 μg in DMSO intravitreal at 3 and 4 weeks after inoculation) was “lower compared to sham”. The “reduction in retinoblastoma cells in the eyes as compared to sham” value in data set [1] (10 μg intravitreal at 3 and 4 weeks) is recorded as “statistically significant reduction”. In addition, the pEC50 in data set [6] is below 5.06. The pEC50 in data set [2] was 6.56. This compound gave a negative logarithm of the EC50 (pEC50) in data set [4] of 6.47.

In the case of `Cc1cc2c(C(=O)NC[C@H](C)c3ccccc3)c(O)c(O)cc2c(O)c1-c1c(C)cc2c(C(=O)NC[C@H](C)c3ccccc3)c(O)c(O)cc2c1O` [Sabutoclax], the pEC50 is below 5.44 in data set [6], 6.68 in data set [2] and 6.50 in data set [4].
